Laboratory results taken from ChEMBL document CHEMBL4619763 (J Nat Prod, 2020).
Active and inactive are the calls of the source. The rule behind the calls is not given here.

Columns and labels:
Rattus norvegicus [1] = assay: Diuretic activity in normotensive Wistar rat assessed as urinary sodium excretion at 0.01 mg/kg, ip after 8 hrs (reference value: 81.56 +/- 13.10 mmol/L); type: functional
Rattus norvegicus [2] = assay: Diuretic activity in normotensive Wistar rat assessed as urinary sodium excretion at 0.1 mg/kg, ip after 8 hrs (reference value: 81.56 +/- 13.10 mmol/L); type: functional
Rattus norvegicus [3] = assay: Diuretic activity in normotensive Wistar rat assessed as urinary chloride excretion at 1 mg/kg, ip […] after 8 hrs (reference value: 103.30 +/- 10.25 mmol/L); type: functional
[4] = Anti-urolithic activity in synthetic urine assessed as decrease in absorption at 0.1 mg/mL relative to control; type: functional; set-up: scale not given: the % may be the effect or the level left
Rattus norvegicus [5] = assay: Diuretic activity in normotensive Wistar rat assessed as urine pH at 0.1 mg/kg, po administered via gavage after 8 hrs in presence of indomethacin (reference value: 6.14 to 6.21); type: functional
Rattus norvegicus [6] = assay: Diuretic activity in normotensive Wistar rat assessed as urinary sodium excretion at 0.1 mg/kg, po administered via gavage after 8 hrs (reference value: 61.82 to 80.81 mmol/L); type: functional
Rattus norvegicus [7] = assay: Diuretic activity in normotensive Wistar rat assessed as urine conductivity at 0.01 mg/kg, po administered via gavage after 8 hrs (reference value: 19.54 +/- 0.98 mS/cm); type: functional
Rattus norvegicus [8] = assay: Diuretic activity in normotensive Wistar rat assessed as urine conductivity at 0.1 mg/kg, po administered via gavage after 8 hrs in presence of L-NAME (reference value: 19.54 +/- 0.98 mS/cm); type: functional
[9] = Toxicity in normotensive Wistar rat assessed as changes in plasma nitrite acid level at 0.1 mg/kg, po administered for 7 days; type: organism-based; conditions: in vivo, 168 h
Rattus norvegicus [10] = assay: Diuretic activity in normotensive Wistar rat assessed as urinary calcium excretion at 0.01 mg/kg, […] administered via gavage after 8 hrs (reference value: 5.28 +/- 0.09 mg/dl); type: functional
[11] = Toxicity in spontaneous hypertensive Wistar rat assessed as changes in plasma calcium level at 0.1 mg/kg, po administered for 7 days; type: organism-based; conditions: in vivo, 168 h
Rattus norvegicus [12] = assay: Diuretic activity in normotensive Wistar rat assessed as urine pH at 1 mg/kg, po administered via gavage after 8 hrs (reference value: 6.14 to 6.21); type: functional
Rattus norvegicus [13] = assay: Diuretic activity in normotensive Wistar rat assessed as urinary calcium excretion at 0.01 mg/kg, po administered via gavage after 8 hrs (reference value: 5.93 to 6.87 mg/dl); type: functional
Rattus norvegicus [14] = assay: Diuretic activity in normotensive Wistar rat assessed as urine pH at 0.1 mg/kg, ip after 8 hrs (reference value: 6.05 +/- 0.22); type: functional
Rattus norvegicus [15] = assay: Diuretic activity in normotensive Wistar rat assessed as urinary sodium excretion at 0.1 mg/kg, po administered via gavage after 8 hrs in presence of furosemide (reference value: 61.82 to 80.81 mmol/L); type: functional
Rattus norvegicus [16] = assay: Diuretic activity in spontaneous hypertensive Wistar rat assessed as increase in urine volume at 0.1 mg/kg, po administered via gavage for 7 days; type: functional, organism-based
[17] = Toxicity in normotensive Wistar rat assessed as changes in plasma chloride level at 0.1 mg/kg, po administered for 7 days; type: organism-based; conditions: in vivo, 168 h
Rattus norvegicus [18] = assay: Diuretic activity in normotensive Wistar rat assessed as urinary chloride excretion at 0.01 mg/kg, po administered via gavage after 8 hrs (reference value: 135.10 to 143.70 mmol/L); type: functional
Rattus norvegicus [19] = assay: Diuretic activity in normotensive Wistar rat assessed as urine conductivity at 0.1 mg/kg, po administered via gavage after 8 hrs in presence of furosemide (reference value: 19.54 +/- 0.98 mS/cm); type: functional
Rattus norvegicus [20] = assay: Diuretic activity in spontaneous hypertensive Wistar rat assessed as effect on urinary potassium excretion at 0.1 mg/kg, po administered via gavage for 7 days; type: ADME, organism-based; conditions: in vivo, 168 h
Rattus norvegicus [21] = assay: Diuretic activity in normotensive Wistar rat assessed as urinary potassium excretion at 0.1 mg/kg, po administered via gavage after 8 hrs in presence of amiloride (reference value: 22.39 to 24.21 mmol/L); type: ADME, organism-based; conditions: in vivo
[22] = Toxicity in spontaneous hypertensive Wistar rat assessed as changes in plasma ALT level at 0.1 mg/kg, po administered for 7 days; type: organism-based; conditions: in vivo, 168 h
Rattus norvegicus [23] = assay: Diuretic activity in normotensive Wistar rat assessed as urine conductivity at 0.1 mg/kg, po administered via gavage after 8 hrs in presence of amiloride (reference value: 19.54 +/- 0.98 mS/cm); type: functional
Rattus norvegicus [24] = assay: Diuretic activity in normotensive Wistar rat assessed as urinary calcium excretion at 0.1 mg/kg, po administered via gavage after 8 hrs (reference value: 5.93 to 6.87 mg/dl); type: functional
Rattus norvegicus [25] = assay: Diuretic activity in normotensive Wistar rat assessed as increase in urinary chloride excretion at 0.1 mg/kg, po administered via gavage for 7 days; type: functional, organism-based
Rattus norvegicus [26] = assay: Diuretic activity in normotensive Wistar rat assessed as urinary calcium excretion at 0.1 mg/kg, po administered via gavage after 8 hrs in presence of L-NAME (reference value: 5.93 to 6.87 mg/dl); type: functional
Rattus norvegicus [27] = assay: Diuretic activity in normotensive Wistar rat assessed as urine conductivity at 0.1 mg/kg, ip after 8 hrs (reference value: 24.87 +/- 0.54 mS/cm); type: functional
Rattus norvegicus [28] = assay: Diuretic activity in normotensive Wistar rat assessed as urinary calcium excretion at 0.1 mg/kg, po administered via gavage after 8 hrs in presence of atropine (reference value: 5.93 to 6.87 mg/dl); type: functional
Rattus norvegicus [29] = assay: Diuretic activity in normotensive Wistar rat assessed as urinary potassium excretion at 0.1 mg/kg, ip […] after 8 hrs (reference value: 22.33 +/- 2.81 mmol/L); type: ADME, organism-based; conditions: in vivo
Rattus norvegicus [30] = assay: Diuretic activity in normotensive Wistar rat assessed as urine conductivity at 1 mg/kg, ip after 8 hrs (reference value: 24.87 +/- 0.54 mS/cm); type: functional
Rattus norvegicus [31] = assay: Diuretic activity in normotensive Wistar rat assessed as urinary chloride excretion at 0.1 mg/kg, po administered via gavage after 8 hrs (reference value: 135.10 to 143.70 mmol/L); type: functional
[32] = Toxicity in spontaneous hypertensive Wistar rat assessed as changes in urea level in urine at 0.1 mg/kg, po administered for 7 days; type: organism-based; conditions: in vivo, 168 h
[33] = Anti-urolithic activity in synthetic urine assessed as reduction in CaOx crystal formation at 0.01 mg/mL in presence of sodium oxalate after 60 mins by Neubauer counting chamber method relative to control; type: functional; set-up: scale not given: the % may be the effect or the level left
Rattus norvegicus [34] = assay: Diuretic activity in spontaneous hypertensive Wistar rat assessed as decrease in urinary calcium excretion at 0.1 mg/kg, po administered via gavage for 7 days; type: functional, organism-based
Rattus norvegicus [35] = assay: Diuretic activity in normotensive Wistar rat assessed as increase in urinary sodium excretion at 0.1 mg/kg, po administered via gavage for 7 days; type: functional, organism-based
Rattus norvegicus [36] = assay: Diuretic activity in normotensive Wistar rat assessed as urinary sodium excretion at 0.1 mg/kg, po administered via gavage after 8 hrs in presence of atropine (reference value: 61.82 to 80.81 mmol/L); type: functional

## C[C@@H]1O[C@@H](Oc2c(-c3ccc(O)cc3)oc3cc(O)cc(O)c3c2=O)[C@H](O)[C@H](O)[C@H]1O [AFZELIN]
Rattus norvegicus [1]
  Activity: 51.84 mmol/L
Rattus norvegicus [2]
  Activity: 40.93 mmol/L
Rattus norvegicus [3]
  Activity: 107.4 mmol/L
[4]
  Activity: 27.81%
Rattus norvegicus [5]
  pH: 5.94
Rattus norvegicus [6]
  Activity: 53.09 to 56.99 mmol/L
Rattus norvegicus [7]
  Activity: 22.17 mS/cm
Rattus norvegicus [8]
  Activity: 15.97 mS/cm
[9]
  Activity: Non-Toxic
Rattus norvegicus [10]
  Activity: 5.6 mg/dL
[11]
  Activity: Non-Toxic
Rattus norvegicus [12]
  pH: 6.29
Rattus norvegicus [13]
  Activity: 5.23 mg/dL
Rattus norvegicus [14]
  pH: 5.89
Rattus norvegicus [15]
  Activity: 75.54 mmol/L
Rattus norvegicus [16]
  Activity: Active
[17]
  Activity: Non-Toxic
Rattus norvegicus [18]
  Activity: 113.3 mmol/L
Rattus norvegicus [19]
  Activity: 20.62 mS/cm
Rattus norvegicus [20]
  Activity: Non-Toxic
Rattus norvegicus [21]
  Activity: 1.95 mmol/L
[22]
  Activity: Non-Toxic
Rattus norvegicus [23]
  Activity: 15.25 mS/cm
Rattus norvegicus [24]
  Activity: 5.22 to 6.33 mg/dL
Rattus norvegicus [25]
  Activity: Active
Rattus norvegicus [26]
  Activity: 4.82 mg/dL
Rattus norvegicus [27]
  Activity: 24.35 mS/cm
Rattus norvegicus [28]
  Activity: 4.69 mg/dL
Rattus norvegicus [29]
  Activity: 12.79 mmol/L
Rattus norvegicus [30]
  Activity: 24.92 mS/cm
Rattus norvegicus [31]
  Activity: 186.6 to 231.3 mmol/L
[32]
  Activity: Non-Toxic
[33]
  Activity: 57.47%
Rattus norvegicus [34]
  Activity: Active
Rattus norvegicus [35]
  Activity: Active
Rattus norvegicus [36]
  Activity: 57.23 mmol/L
